Experimental data: US10030020B2, “Spirocycle compounds and methods of making and using same” (Abide Therapeutics, Inc., priority 2016, dated 2018)
Where two headings read alike, the source gives them in different places.

Key:
Format in all cases: biochemical
MAGL = MAGL (Mus musculus (Mouse), UniProt O35678); assay: In vitro competitive activity-based protein profiling (mouse brain membrane fraction or cell lysates), MAGL band; conditions: mouse proteome; for inhibition at 1 µM: read-out: MAGL % Inh 1 μM (mouse); for IC50: competitive ABPP
Sequence of MAGL (O35678 whole entry): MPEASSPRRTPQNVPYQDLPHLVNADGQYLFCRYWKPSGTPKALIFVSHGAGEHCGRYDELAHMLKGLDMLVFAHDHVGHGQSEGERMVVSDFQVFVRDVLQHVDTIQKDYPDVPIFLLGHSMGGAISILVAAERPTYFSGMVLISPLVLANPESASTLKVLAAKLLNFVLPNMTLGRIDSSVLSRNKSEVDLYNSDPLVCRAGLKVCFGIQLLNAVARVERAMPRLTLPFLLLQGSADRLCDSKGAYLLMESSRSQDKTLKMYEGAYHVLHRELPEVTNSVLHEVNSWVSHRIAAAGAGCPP
Method: (§1) In Vitro Competitive Activity-Based Protein Profiling.
(§2) Proteomes (mouse brain membrane fraction or cell lysates) (50 μL, 1.0 mg/mL total protein concentration) were preincubated with varying concentrations of inhibitors at 37° C. After 30 min, FP—Rh (1.0 μL, 50 μM in DMSO) was added and the mixture was incubated for another 30 min at 37° C. Reactions were quenched with SDS loading buffer (50 μL-4×) and run on SDS-PAGE.

ABHD6 = ABHD6 (Mus musculus (Mouse), UniProt Q8R2Y0); assay: In vitro competitive activity-based protein profiling (mouse brain membrane fraction or cell lysates), ABHD6 band; conditions: for inhibition at 1 µM: read-out: ABHD6 % Inh 1 μM (mouse); for IC50: competitive ABPP
Sequence of ABHD6 (Q8R2Y0 whole entry): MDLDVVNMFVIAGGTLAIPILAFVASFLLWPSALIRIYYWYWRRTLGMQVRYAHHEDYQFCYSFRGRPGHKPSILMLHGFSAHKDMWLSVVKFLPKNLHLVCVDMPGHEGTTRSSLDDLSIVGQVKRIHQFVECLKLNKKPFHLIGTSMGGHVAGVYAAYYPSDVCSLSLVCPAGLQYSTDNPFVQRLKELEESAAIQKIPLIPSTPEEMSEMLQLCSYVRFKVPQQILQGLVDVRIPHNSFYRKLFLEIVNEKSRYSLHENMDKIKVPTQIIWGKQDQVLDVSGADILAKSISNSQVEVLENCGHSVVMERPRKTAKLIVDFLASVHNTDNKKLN
Method: as §1
as §2, with “SDS-PAGE. Following gel imaging, serine hydrolase activity was determined by measuring fluorescent intensity of gel bands corresponding to MAGL, ABHD6 and FAAH using ImageJ 1.43u software.” for “SDS-PAGE.”

FAAH = FAAH (Mus musculus (Mouse), UniProt O08914); assay: In vitro competitive activity-based protein profiling (mouse brain membrane fraction or cell lysates), FAAH band; conditions: for inhibition at 1 µM: read-out: FAAH % Inh 1 μM (mouse); for IC50: competitive ABPP
Sequence of FAAH (O08914 whole entry): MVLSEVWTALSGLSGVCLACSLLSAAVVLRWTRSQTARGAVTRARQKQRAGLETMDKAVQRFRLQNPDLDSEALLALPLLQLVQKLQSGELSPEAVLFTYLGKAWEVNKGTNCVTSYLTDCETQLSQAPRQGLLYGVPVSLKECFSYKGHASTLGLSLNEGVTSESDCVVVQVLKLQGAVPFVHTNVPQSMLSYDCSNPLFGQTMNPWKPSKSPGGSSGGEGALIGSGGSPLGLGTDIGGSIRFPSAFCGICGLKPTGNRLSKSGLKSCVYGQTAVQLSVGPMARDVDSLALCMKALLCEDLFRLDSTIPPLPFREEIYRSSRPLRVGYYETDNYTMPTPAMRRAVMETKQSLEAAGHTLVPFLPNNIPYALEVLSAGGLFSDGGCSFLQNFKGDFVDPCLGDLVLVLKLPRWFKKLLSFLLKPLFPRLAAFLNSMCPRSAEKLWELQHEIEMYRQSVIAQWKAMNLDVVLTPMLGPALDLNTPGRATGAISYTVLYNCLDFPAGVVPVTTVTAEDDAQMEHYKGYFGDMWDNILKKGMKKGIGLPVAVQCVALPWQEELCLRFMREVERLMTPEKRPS
Method: as §1
as §2, with “SDS-PAGE. Following gel imaging, serine hydrolase activity was determined by measuring fluorescent intensity of gel bands corresponding to MAGL, ABHD6 and FAAH using ImageJ 1.43u software.” for “SDS-PAGE.”

Row | SMILES | inhibition at 1 µM (MAGL) [%] | inhibition at 1 µM (ABHD6; mouse proteome) [%] | IC50 (ABHD6; mouse proteome) [nM] | inhibition at 1 µM (FAAH; mouse proteome) [%] | IC50 (FAAH; mouse proteome) [nM] | IC50 (MAGL) [nM] | inhibition at 1 µM (ABHD6; mouse) [%] | inhibition at 1 µM (FAAH; mouse) [%]
1 | COc1ccc(CN2CCCC23CCN(C(=O)OC(C(F)(F)F)C(F)(F)F)CC3)cc1 [Example 1, 1,1,1,3,3,3-Hexafluoropropan-2-yl 1-(4-methoxybenzyl)-1,8-diazaspiro[4.5]decane-8-carboxylate] | > 75 | < 25 | > 1000 | < 25 | > 1000 | – | – | –
2 | COc1cccc(CN2CCCC23CCN(C(=O)OC(C(F)(F)F)C(F)(F)F)CC3)c1 [Example 2, 1,1,1,3,3,3-Hexafluoropropan-2-yl 1-(3-methoxybenzyl)-1,8-diazaspiro[4.5]decane-8-carboxylate] | > 75 | < 25 | > 1000 | < 25 | > 1000 | 100 to 1000 | – | –
3 | COc1ccccc1CN1CCCC12CCN(C(=O)OC(C(F)(F)F)C(F)(F)F)CC2 [Example 3, 1,1,1,3,3,3-Hexafluoropropan-2-yl 1-(2-methoxybenzyl)-1,8-diazaspiro[4.5]decane-8-carboxylate] | > 75 | < 25 | > 1000 | < 25 | > 1000 | 100 to 1000 | – | –
4 | CCOc1ccccc1CN1CCCC12CCN(C(=O)OC(C(F)(F)F)C(F)(F)F)CC2 [Example 6, 1,1,1,3,3,3-Hexafluoropropan-2-yl 1-(2-ethoxybenzyl)-1,8-diazaspiro[4.5]decane-8-carboxylate] | – | – | > 1000 | – | > 1000 | 100 to 1000 | – | –
5 | O=C(OC(C(F)(F)F)C(F)(F)F)N1CCC2(CCCN2Cc2cccc(OCCN3CCCCC3)c2)CC1 [Example 11, 1,1,1,3,3,3-Hexafluoropropan-2-yl 1-(3-(2-(piperidin-1-yl)ethoxy)benzyl)-1,8-diazaspiro[4.5]decane-8-carboxylate] | > 75 | < 25 | > 1000 | < 25 | > 1000 | 100 to 1000 | – | –
6 | O=C(OC(C(F)(F)F)C(F)(F)F)N1CCC2(CCCN2Cc2cccc(OCCN3CCCC3)c2)CC1 [Example 12, 1,1,1,3,3,3-Hexafluoropropan-2-yl 1-(3-(2-(pyrrolidin-1-yl)ethoxy)benzyl)-1,8-diazaspiro[4.5]decane-8-carboxylate] | > 75 | < 25 | > 1000 | < 25 | > 1000 | 100 to 1000 | – | –
7 | O=C(OC(C(F)(F)F)C(F)(F)F)N1CCC2(CCCN2Cc2cccc(OCCN3CCOCC3)c2)CC1 [Example 13, 1,1,1,3,3,3-Hexafluoropropan-2-yl 1-(3-(2-morpholinoethoxy)benzyl)-1,8-diazaspiro[4.5]decane-8-carboxylate] | > 75 | < 25 | > 1000 | < 25 | > 1000 | 100 to 1000 | – | –
8 | O=C(OC(C(F)(F)F)C(F)(F)F)N1CCC2(CCCN2Cc2ccc(OCCN3CCOCC3)cc2)CC1 [Example 14, 1,1,1,3,3,3-Hexafluoropropan-2-yl 1-(4-(2-morpholinoethoxy)benzyl)-1,8-diazaspiro[4.5]decane-8-carboxylate] | > 75 | < 25 | – | < 25 | – | – | – | –
9 | O=C(OC(C(F)(F)F)C(F)(F)F)N1CCC2(CCCN2Cc2ccc(OCCN3CCCCC3)c(Cl)c2)CC1 [Example 15, 1,1,1,3,3,3-Hexafluoropropan-2-yl 1-(3-chloro-4-(2-(piperidin-1-yl)ethoxy)benzyl)-1,8-diazaspiro[4.5]decane-8-carboxylate] | > 75 | < 25 | > 1000 | < 25 | > 1000 | 100 to 1000 | – | –
10 | O=C(OC(C(F)(F)F)C(F)(F)F)N1CCC2(CCCN2Cc2cc(Cl)cc(N3CC4COCC4C3)c2)CC1 (stereo not drawn) [Example 38, 1,1,1,3,3,3-Hexafluoropropan-2-yl 1-(3-chloro-5-(tetrahydro-1H-furo[3,4-c]pyrrol-5(3H)-yl)benzyl)-1,8-diazaspiro[4.5]decane-8-carboxylate] | > 75 | < 25 | > 1000 | 25 to 75 | > 1000 | < 100 | – | –
11 | O=C(OC(C(F)(F)F)C(F)(F)F)N1CCC2(CCCN2Cc2cc(Cl)cc(N3CCC(F)CC3)c2)CC1 [Example 39, 1,1,1,3,3,3-Hexafluoropropan-2-yl 1-(3-chloro-5-(4-fluoropiperidin-1-yl)benzyl)-1,8-diazaspiro[4.5]decane-8-carboxylate] | > 75 | < 25 | > 1000 | < 25 | > 1000 | < 100 | – | –
12 | O=C(OC(C(F)(F)F)C(F)(F)F)N1CCC2(CCCN2Cc2cc(N3CCC(C(F)(F)F)CC3)cc(C(F)(F)F)c2)CC1 [Example 44, 1,1,1,3,3,3-Hexafluoropropan-2-yl 1-(3-(trifluoromethyl)-5-(4-(trifluoromethyl)piperidin-1-yl)benzyl)-1,8-diazaspiro[4.5]decane-8-carboxylate] | – | – | > 1000 | – | > 1000 | – | – | –
13 | O=C(O)C1CCN(c2cc(Cl)ccc2CN2CCC3(CCN(C(=O)OC(C(F)(F)F)C(F)(F)F)CC3)C2)CC1 [Example 118, 1-(5-chloro-2-((8-(((1,1,1,3,3,3-hexafluoropropan-2-yl)oxy)carbonyl)-2,8-diazaspiro[4.5]decan-2-yl)methyl)phenyl)piperidine-4-carboxylic acid] | – | < 25 | > 1000 | < 25 | > 1000 | – | – | –
14 | O=C(O)c1ccc(CN2CCCC23CCN(C(=O)OC(C(F)(F)F)C(F)(F)F)CC3)cc1C(F)(F)F [Example 182, 4-((8-((1,1,1,3,3,3-Hexafluoropropan-2-yloxy)carbonyl)-1,8-diazaspiro[4.5]decan-1-yl)methyl)-2-(trifluoromethyl)benzoic acid] | – | < 25 | > 1000 | < 25 | > 1000 | – | – | –
15 | O=C(O)C1CCN(c2cc(F)ccc2CN2CCC3(CCN(C(=O)OC(C(F)(F)F)C(F)(F)F)CC3)C2)CC1 [Example 237] | – | – | – | – | – | – | 25 to 75 | < 25
16 | Cc1cc(CN2CCCC23CCN(C(=O)OC(C(F)(F)F)C(F)(F)F)CC3)cc(C(=O)O)c1 [Example 243] | – | – | – | – | – | – | < 25 | < 25
17 | O=C(O)C1CCN(Cc2cc(CN3CCC4(CCN(C(=O)OC(C(F)(F)F)C(F)(F)F)CC4)C3)ccc2Cl)CC1 [Example 246] | – | – | – | – | – | – | 25 to 75 | < 25
18 | O=C(O)c1cc(CN2CCC3(CCN(C(=O)OC(C(F)(F)F)C(F)(F)F)CC3)C2)ccc1C(F)(F)F [Example 255] | – | – | – | – | – | – | 25 to 75 | < 25
19 | CC1(C(=O)O)CN(c2cc(C(F)(F)F)ccc2CN2CCCC23CCN(C(=O)OC(C(F)(F)F)C(F)(F)F)CC3)CCO1 (stereo not drawn) [Example 260] | – | – | – | – | – | – | < 25 | < 25
20 | O=C(O)c1cc(CN2CCCC23CCN(C(=O)OC(C(F)(F)F)C(F)(F)F)CC3)ccc1Cl [Example 266] | – | – | – | – | – | – | < 25 | < 25
